Reference: patent US9758491B2, “Molecules having pesticidal utility, and intermediates, compositions, and processes, related thereto” (priority 2015, dated 2017)

Key:
Assay type in all cases: in vivo
[1] = system: Beet Armyworm (Spodoptera exigua, LAPHEG); test: Bioassay on Beet Armyworm (BAW), 128-well diet tray assay; conditions: 168 h, 50 μg/cm^2 on artificial diet, second instar larvae, 25° C., five to seven days, average of eight wells, read-out: BAW rating, % Control (or Mortality)
Procedure: (§1) Certain molecules disclosed in this document were tested against BAW and CL using procedures described in the following examples. In the reporting of the results, the “BAW & CL Rating Table” was used (See Table Section).
Bioassays on BAW were conducted using a 128-well diet tray assay. One to five second instar BAW larvae were placed in each well (3 mL) of the diet tray that had been previously filled with 1 mL of artificial diet to which 50 μg/cm^2 of the test molecule (dissolved in 50 μL of 90:10 acetone-water mixture) had been applied (to each of eight wells) and then allowed to dry. Trays were covered with a clear self-adhesive cover, vented to allow gas exchange, and held at 25° C., 14:10 light-dark for five to seven days. Percent mortality was recorded for the larvae in each well; activity in the eight wells was then averaged. The results are indicated in the table entitled “Table ABC: Biological Results” (See Table Section).

[2] = system: Cabbage Looper (Trichoplusia ni, TRIPNI); test: Bioassay on Cabbage Looper (CL), 128-well diet tray assay; conditions: 168 h, 50 μg/cm^2 on artificial diet, second instar larvae, 25° C., five to seven days, average of eight wells, read-out: CL rating, % Control (or Mortality)
Procedure: as §1
Bioassays on CL were conducted using a 128-well diet tray assay. One to five second instar CL larvae were placed in each well (3 mL) of the diet tray that had been previously filled with 1 mL of artificial diet to which 50 μg/cm^2 of the test molecule (dissolved in 50 μL of 90:10 acetone-water mixture) had been applied (to each of eight wells) and then allowed to dry. Trays were covered with a clear self-adhesive cover, vented to allow gas exchange, and held at 25° C., 14:10 light-dark for five to seven days. Percent mortality was recorded for the larvae in each well; activity in the eight wells was then averaged. The results are indicated in the table entitled “Table ABC: Biological Results” (See Table Section).

[3] = system: Yellow Fever Mosquito (Aedes aegypti, AEDSAE); test: Bioassay on Yellow Fever Mosquito (YFM) larvae, 96-well plate; conditions: 4000 ppm DMSO master solution diluted, about 1 day-old larvae, room temperature, scored after 3 days
Procedure: Certain molecules disclosed in this document were tested against YFM using procedures described in the following paragraph. In the reporting of the results, the “YFM Rating Table” was used (See Table Section).
Master plates containing 400 μg of a molecule dissolved in 100 μL of dimethyl sulfoxide (DMSO) (equivalent to a 4000 ppm solution) are used. A master plate of assembled molecules contains 15 μL per well. To this plate, 135 μL of a 90:10 water/acetone mixture is added to each well. A robot (Biomek® NXP Laboratory Automation Workstation) is programmed to dispense 15 μL aspirations from the master plate into an empty 96-well shallow plate (“daughter” plate). There are 6 reps (“daughter” plates) created per master. The created “daughter” plates are then immediately infested with YFM larvae.
The day before plates are to be treated, mosquito eggs are placed in Millipore water containing liver powder to begin hatching (4 g into 400 mL). After the “daughter” plates are created using the robot, they are infested with 220 μL of the liver powder/larval mosquito mixture (about 1 day-old larvae). After plates are infested with mosquito larvae, a non-evaporative lid is used to cover the plate to reduce drying. Plates are held at room temperature for 3 days prior to grading. After 3 days, each well is observed and scored based on mortality. The results are indicated in the table entitled “Table ABC: Biological Results” (See Table Section).

Row | SMILES | mortality at 50 µg/cm2 [1] | mortality at 50 µg/cm2 [2] | YFM rating, % Control (or Mortality) [3]
1 | N/C(=N\C(=O)Nc1ccc(-c2ncn(-c3ccc(OC(F)(F)F)cc3)n2)cc1)Nc1ccccc1-c1ccccc1 [F1, (1E)-1-[Amino-(2-phenylanilino)methylene]-3-[4-[1-[4-(trifluoromethoxy)phenyl]-1H-1,2,4-triazol-3-yl]phenyl]urea] | 50 to 100% | 50 to 100% | A (80-100)
2 | N/C(=N\C(=O)Nc1ccc(-c2ncn(-c3ccc(OC(F)(F)F)cc3)n2)cc1)Nc1ccccc1Cc1ccccc1 [F2, (1E)-1-[Amino-(2-benzylanilino)methylene]-3-[4-[1-[4-(trifluoromethoxy)phenyl]-1H-1,2,4-triazol-3-yl]phenyl]urea] | 50 to 100% | 50 to 100% | A (80-100)
3 | CCc1ccccc1N/C(N)=N/C(=O)Nc1ccc(-c2ncn(-c3ccc(OC(F)(F)F)cc3)n2)cc1 [F3, (1E)-1-[Amino-(2-ethylanilino)methylene]-3-[4-[1-[4-(trifluoromethoxy)phenyl]-1H-1,2,4-triazol-3-yl]phenyl]urea] | 50 to 100% | 50 to 100% | A (80-100)
4 | N/C(=N\C(=O)Nc1ccc(-c2ncn(-c3ccc(OC(F)(F)F)cc3)n2)cc1)Nc1ccccc1 [F4, (1E)-1-[amino(anilino)methylene]-3-[4-[1-[4-(trifluoromethoxy)phenyl]-1H-1,2,4-triazol-3-yl]phenyl]urea] | 50 to 100% | 50 to 100% | A (80-100)
5 | Cc1ccccc1N/C(N)=N/C(=O)Nc1ccc(-c2ncn(-c3ccc(OC(F)(F)F)cc3)n2)cc1 [F5, (1E)-1-[Amino-(2-methylanilino)methylene]-3-[4-[1-[4-(trifluoromethoxy)phenyl]-1H-1,2,4-triazol-3-yl]phenyl]urea] | 50 to 100% | 50 to 100% | A (80-100)
6 | CCCc1ccccc1N/C(N)=N/C(=O)Nc1ccc(-c2ncn(-c3ccc(OC(F)(F)F)cc3)n2)cc1 [F6, (1E)-1-[Amino-(2-propylanilino)methylene]-3-[4-[1-[4-(trifluoromethoxy)phenyl]-1H-1,2,4-triazol-3-yl]phenyl]urea] | 50 to 100% | 50 to 100% | A (80-100)
7 | Cc1ccc(C)c(N/C(N)=N/C(=O)Nc2ccc(-c3ncn(-c4ccc(OC(F)(F)F)cc4)n3)cc2)c1 [F7, (1E)-1-[Amino-(2,5-dimethylanilino)methylene]-3-[4-[1-[4-(trifluoromethoxy)phenyl]-1H-1,2,4-triazol-3-yl]phenyl]urea] | 50 to 100% | 50 to 100% | A (80-100)
8 | Cc1ccc(N/C(N)=N/C(=O)Nc2ccc(-c3ncn(-c4ccc(OC(F)(F)F)cc4)n3)cc2)c(C)c1 [F8, (1E)-1-[Amino-(2,4-dimethylanilino)methylene]-3-[4-[1-[4-(trifluoromethoxy)phenyl]-1H-1,2,4-triazol-3-yl]phenyl]urea] | 50 to 100% | 50 to 100% | A (80-100)
9 | COc1ccc(N/C(N)=N/C(=O)Nc2ccc(-c3ncn(-c4ccc(OC(F)(F)F)cc4)n3)cc2)c(C)c1 [F9, (1E)-1-[Amino-(4-methoxy-2-methyl-anilino)methylene]-3-[4-[1-[4-(trifluoromethoxy)phenyl]-1H-1,2,4-triazol-3-yl]phenyl]urea] | 50 to 100% | 50 to 100% | A (80-100)
10 | CC(C)c1ccccc1N/C(N)=N/C(=O)Nc1ccc(-c2ncn(-c3ccc(OC(F)(F)F)cc3)n2)cc1 [F10, (1E)-1-[Amino-(2-isopropylanilino)methylene]-3-[4-[1-[4-(trifluoromethoxy)phenyl]-1H-1,2,4-triazol-3-yl]phenyl]urea] | 50 to 100% | 50 to 100% | A (80-100)
11 | Cc1cccc(C)c1N/C(N)=N/C(=O)Nc1ccc(-c2ncn(-c3ccc(OC(F)(F)F)cc3)n2)cc1 [F11, (1E)-1-[amino-(2,6-dimethylanilino)methylene]-3-[4-[1-[4-(trifluoromethoxy)phenyl]-1H-1,2,4-triazol-3-yl]phenyl]urea] | 50 to 100% |  | 
12 | Cc1cc(Cl)ccc1N1CCN/C1=N\C(=O)Nc1ccc(-c2ncn(-c3ccc(OC(F)(F)F)cc3)n2)cc1 [F12, (E)-1-(1-(4-Chloro-2-methylphenyl)imidazolidin-2-ylidene)-3-(4-(1-(4-(trifluoromethoxy)phenyl)-1H-1,2,4-triazol-3-yl)phenyl)urea] | 0 to 50% | 50 to 100% | D (No activity noticed in this bioassay)
13 | Cc1ccc(F)cc1N1CCN/C1=N\C(=O)Nc1ccc(-c2ncn(-c3ccc(OC(F)(F)F)cc3)n2)cc1 [F13, (E)-1-(1-(5-Fluoro-2-methylphenyl)imidazolidin-2-ylidene)-3-(4-(1-(4-(trifluoromethoxy)phenyl)-1H-1,2,4-triazol-3-yl)phenyl)urea] | 50 to 100% | 50 to 100% | D (No activity noticed in this bioassay)
14 | CCc1ccccc1N1CCN/C1=N\C(=O)Nc1ccc(-c2ncn(-c3ccc(OC(F)(F)F)cc3)n2)cc1 [F14, (E)-1-(1-(2-Ethylphenyl)imidazolidin-2-ylidene)-3-(4-(1-(4-(trifluoromethoxy)phenyl)-1H-1,2,4-triazol-3-yl)phenyl)urea] | 50 to 100% | 50 to 100% | A (80-100)
15 | Cc1ccc(N2CCN/C2=N\C(=O)Nc2ccc(-c3ncn(-c4ccc(OC(F)(F)F)cc4)n3)cc2)c(C)c1 [F15, (E)-1-(1-(2.4-dimethylphenyl)imidazolidin-2-ylidene)-3-(4-(1-(4-(trifluoromethoxy)phenyl)-1H-1,2,4-triazol-3-yl)phenyl)urea] | 50 to 100% | 50 to 100% | A (80-100)
16 | O=C(/N=C1\NCCN1c1ccccc1)Nc1ccc(-c2ncn(-c3ccc(OC(F)(F)F)cc3)n2)cc1 [F16, (E)-1-(1-Phenylimidazolidin-2-ylidene)-3-(4-(1-(4-(trifluoromethoxy)phenyl)-1H-1,2,4-triazol-3-yl)phenyl)urea] | 50 to 100% | 50 to 100% | A (80-100)
17 | Cc1cc(C)c(N2CCN/C2=N\C(=O)Nc2ccc(-c3ncn(-c4ccc(OC(F)(F)F)cc4)n3)cc2)c(C)c1 [F17, (E)-1-(1-Mesitylimidazolidin-2-ylidene)-3-(4-(1-(4-(trifluoromethoxy)phenyl)-1H-1,2,4-triazol-3-yl)phenyl)urea] | 50 to 100% | 50 to 100% | A (80-100)
18 | COc1ccccc1N1CCN/C1=N\C(=O)Nc1ccc(-c2ncn(-c3ccc(OC(F)(F)F)cc3)n2)cc1 [F18, (E)-1-(1-(2-Methoxyphenyl)imidazolidin-2-ylidene)-3-(4-(1-(4-(trifluoromethoxy)phenyl)-1H-1,2,4-triazol-3-yl)phenyl)urea] | 50 to 100% | 50 to 100% | A (80-100)
19 | O=C(/N=C1\NCCN1c1ccccc1OC(F)(F)F)Nc1ccc(-c2ncn(-c3ccc(OC(F)(F)F)cc3)n2)cc1 [F19, (E)-1-(4-(1-(4-(Trifluoromethoxy)phenyl)-1H-1,2,4-triazol-3-yl)phenyl)-3-(1-(2-(trifluoromethoxy)phenyl)imidazolidin-2-ylidene)urea] | 0 to 50% | 50 to 100% | D (No activity noticed in this bioassay)
